Measured values as given in patent publication US20240292837A1, “CHROMONE DERIVATIVES AS ATTRACTANTS AND REPELLENTS OF BLOOD-SUCKING, BITING INVERTEBRATES” (CENTRE NATIONAL DE LA RECHERCHE SCIENTIFIQUE, priority 2021, published 2024).

Columns and labels:
[1] = test system: Aedes albopictus; assay: Evaluation of the repellent and/or attractant effect in a tunnel olfactometer; assay type: in vivo; conditions: for Control (±SD), mean number of mosquitoes in the control zone / Treated (±SD), mean number of mosquitoes in the treated zone / Treated/Product (±SD), mean number of mosquitoes in the treated zone: 15 females; for KI (%) kairomone index / Repulsion index 5 mg deposition / Repulsion index 10 mg deposition / Repulsion index 30 mg deposition / RI (%) repulsion index: negative = attractant; for repellent or attractant effect (in words): over the doses tested; for repellent effect compared with Picaridin and DEET (in words): equivalent/identical doses (10 and 30 mg/ml)
Text: The tunnel olfactometer is a 1 m long glass parallelepiped with a 5×5 cm side. The tube is equipped with 3 openings: two on each side, one for feeding in the paper impregnated with the product to be tested, and the other for the paper containing a control. The opening in the middle is for feeding in mosquitoes. Both ends of the tube are closed by covers.
The olfactometer is divided into three compartments or zones: • a neutral zone in the middle; • a test or treated area which is on the side of depositing the product; and • a control area which is located on the side of depositing the control.
For each test, 15 Aedes albopictus females (aged 5 to 12 days) are fed into the neutral zone of the tunnel olfactometer. Mosquitoes are kept for 10 minutes for a time of adaptation. Papers impregnated and dried with a solution of product in ethanol and pure ethanol as a reference are fed in, then the barriers are opened to allow mosquitoes to circulate freely inside the tube. Three test repetitions were carried out for each product. A repetition lasts 20 minutes and the results observed were recorded every 5 minutes.
The values measured are the activity index and the repulsion index. The activity index (Al) describes the percentage of mosquitoes in the control zone (T) and in the treated zone (P) with respect to the total number of mosquitoes tested. Said value should be greater than 30% for the test to be considered significant.
The repulsion index (RI) represents the percentage of the difference in the number of mosquitoes in the control part and in the treated part divided by the sum of the two values. A negative value of the parameter (RI) indicates an attractant activity (kairomone index. KI) of the product tested.
[formula] • Al: Activity index • RI: Repulsion index • T: Number of mosquitoes in the control area • P: Number of mosquitoes in the treated area

[2] = test system: Aedes albopictus; assay: Evaluation of the combination 4-hydroxycoumarin / 7-nonyloxychromone (KI vs amount deposited, FIG. 1); assay type: in vivo
Text: Said figure represents the IK (in %) as a function of the amount deposited (in mg).
It is possible to combine a chromone compound with other compounds of different structure.

| Molecule | AI (%) activity index ([1]; dose 5 mg/ml) | Control (±SD), mean number of mosquitoes in the control zone ([1]; dose 5 mg/ml in treated zone) | Treated/Product (±SD), mean number of mosquitoes in the treated zone ([1]; dose 5 mg/ml) | KI (%) kairomone index ([1]; dose 5 mg/ml) | AI (%) activity index ([1]; dose 10 mg/ml) | Control (±SD), mean number of mosquitoes in the control zone ([1]; dose 10 mg/ml in treated zone) | Treated/Product (±SD), mean number of mosquitoes in the treated zone ([1]; dose 10 mg/ml) | KI (%) kairomone index ([1]; dose 10 mg/ml) | AI (%) activity index ([1]; dose 30 mg/ml) | Control (±SD), mean number of mosquitoes in the control zone ([1]; dose 30 mg/ml in treated zone) | Treated/Product (±SD), mean number of mosquitoes in the treated zone ([1]; dose 30 mg/ml) | KI (%) kairomone index ([1]; dose 30 mg/ml) | repellent or attractant effect (in words) [1] | Repulsion index 5 mg deposition [1] | Repulsion index 10 mg deposition [1] | Repulsion index 30 mg deposition [1] | also measured |
| --- | --- | --- | --- | --- | --- | --- | --- | --- | --- | --- | --- | --- | --- | --- | --- | --- | --- |
| R-(−)-sec-pentoxychromone | 86.7% | 2.2 ± 0.4 | 10.8 ± 0.6 | −66.6% | 81.1% | 3.6 ± 0.4 | 8.6 ± 0.1 | −47.1% | 90% | 6.6 ± 0.4 | 6.9 ± 0.3 | −2.8% | attractant |  |  |  | AI (%) activity index ([1]; dose 1 mg/ml): 92.2%; Control (±SD), mean number of mosquitoes in the control zone ([1]; dose 1 mg/ml in treated zone): 5.3 ± 0.3; Treated (±SD), mean number of mosquitoes in the treated zone ([1]; dose 1 mg/ml): 8.6 ± 0.2; KI (%) kairomone index ([1]; dose 1 mg/ml): −24.3% |
| CCN(CC)C(=O)c1cccc(C)c1 [DEET, reference compound] |  |  |  |  |  |  |  |  |  |  |  |  |  | 55.5% | 60.4% | 59.1% |  |
| CCC(C)OC(=O)N1CCCCC1CCO (stereo not drawn) [Picaridin, reference compound] |  |  |  |  |  |  |  |  |  |  |  |  |  | 42.6% | 49.6% | 59.7% |  |
| CCCCCCCC(C)Oc1ccc2c(=O)ccoc2c1 (racemic) [7-sec-nonyloxychromone] | 83.9% | 2.2 ± 0.3 | 10.4 ± 0.1 | −65.8% | 91.7% | 2.5 ± 0.5 | 11.3 ± 0.0 | −63.6% | 88.3% | 4.8 ± 0.4 | 8.4 ± 0.2 | −27.1% | stays attractant | −65.8% | −63.7% | −27.1% | change of attractant effect with dose (in words) ([2]; from the 10 mg dose onwards): significant decrease; AI (%) activity index ([1]; dose 0.1 mg/ml): 91.1%; Control (±SD), mean number of mosquitoes in the control zone ([1]; dose 0.1 mg/ml in treated zone): 2.5 ± 0.2; Treated (±SD), mean number of mosquitoes in the treated zone ([1]; dose 0.1 mg/ml): 11.2 ± 0.6; KI (%) kairomone index ([1]; dose 0.1 mg/ml): −63.5%; AI (%) activity index ([1]; dose 2 mg/ml): 91.1%; Control (±SD), mean number of mosquitoes in the control zone ([1]; dose 2 mg/ml in treated zone): 1.4 ± 0.4; Treated (±SD), mean number of mosquitoes in the treated zone ([1]; dose 2 mg/ml): 12.3 ± 0.0; KI (%) kairomone index ([1]; dose 2 mg/ml): −79.8%; maximum value of KI ([1]; dose of 2 mg/ml, given as magnitude): ~80%; attractant activity (KI) ([1]; up to 10 mg/ml, given as magnitude): above 65% |
| CCC(C)Oc1ccc2c(=O)ccoc2c1 (racemic) [7-sec-butoxychromone] | 71.1% | 7.3 ± 0.4 | 3.3 ± 0.1 |  | 71.8% | 7.2 ± 0.9 | 3.6 ± 0.4 |  | 78% | 8.3 ± 0.5 | 3.4 ± 0.9 |  | repellent at any dose |  |  |  | RI (%) repulsion index ([1]; dose 5 mg/ml): 37.6%; RI (%) repulsion index ([1]; dose 10 mg/ml): 37.9%; RI (%) repulsion index ([1]; dose 30 mg/ml): 56.1%; AI (%) activity index ([1]; dose 60 mg/ml): 90.6%; Control (±SD), mean number of mosquitoes in the control zone ([1]; dose 60 mg/ml in treated zone): 11.8 ± 0.7; Treated/Product (±SD), mean number of mosquitoes in the treated zone ([1]; dose 60 mg/ml): 1.8 ± 0.2; RI (%) repulsion index ([1]; dose 60 mg/ml): 72.9% |
| R-(−)-sec-butoxychromone | 84% | 9.5 ± 0.3 | 3.1 ± 0.1 |  | 88.9% | 11 ± 0.3 | 2.3 ± 0.7 |  | 92.2% | 12.4 ± 0.1 | 1.4 ± 0.1 |  | repellent at any dose | 51% | 65.6% | 79.5% | RI (%) repulsion index ([1]; dose 5 mg/ml): 51.3%; RI (%) repulsion index ([1]; dose 10 mg/ml): 65.6%; RI (%) repulsion index ([1]; dose 30 mg/ml): 79.5%; AI (%) activity index ([1]; dose 60 mg/ml): 92%; Control (±SD), mean number of mosquitoes in the control zone ([1]; dose 60 mg/ml in treated zone): 12.2 ± 0.1; Treated/Product (±SD), mean number of mosquitoes in the treated zone ([1]; dose 60 mg/ml): 1.6 ± 0.2; RI (%) repulsion index ([1]; dose 60 mg/ml): 76.6%; repellent effect compared with Picaridin and DEET (in words) ([1]; listed as (R) 7-sec-butoxychromone): as effective and more effective than Picaridin and DEET; repellent effect compared with Picaridin and DEET (in words) ([1]; listed as enantiomer R): as significant as DEET and picaridin |
| CCCCCCCCCCOc1ccc2c(=O)ccoc2c1 [7-n-decyloxychromone] |  |  |  |  | 85% | 3.9 ± 0.3 | 8.8 ± 0.9 | −37.8 ± 5.2% |  |  |  |  |  |  |  |  | attractant effect compared with a reference attractant (in words) ([1]; same doses): attractant effect equivalent to that of 7-sec-nonyloxychromone |
| CC[C@H](C)Oc1ccc2c(=O)ccoc2c1 [S-(+)-sec-butoxychromone] | 91.7% | 4.8 ± 0.5 | 9.0 ± 0.2 |  | 87.2% | 4.2 ± 0.9 | 8.9 ± 1.1 |  | 83.3% | 9.3 ± 0.8 | 3.3 ± 0.2 |  | attractant at low doses and repellent at high doses |  |  |  | RI (%) repulsion index ([1]; dose 5 mg/ml): −31.2%; RI (%) repulsion index ([1]; dose 10 mg/ml): −35.8%; RI (%) repulsion index ([1]; dose 30 mg/ml): 47.9%; AI (%) activity index ([1]; dose 60 mg/ml): 89.4%; Control (±SD), mean number of mosquitoes in the control zone ([1]; dose 60 mg/ml in treated zone): 11.4 ± 0.8; Treated/Product (±SD), mean number of mosquitoes in the treated zone ([1]; dose 60 mg/ml): 2.0 ± 0.0; RI (%) repulsion index ([1]; dose 60 mg/ml): 70.5% |
| CCC[C@H](C)Oc1ccc2c(=O)ccoc2c1 [S-(+)-sec-pentoxychromone] | 83.9% | 3.1 ± 1.2 | 9.5 ± 0.7 | −52.4% | 95% | 5.8 ± 0.2 | 8.4 ± 0.1 | −18.2% | 77.8% | 5.2 ± 0.3 | 6.5 ± 0.7 | −10.7% | attractant |  |  |  | AI (%) activity index ([1]; dose 1 mg/ml): 93.3%; Control (±SD), mean number of mosquitoes in the control zone ([1]; dose 1 mg/ml in treated zone): 3.8 ± 0.3; Treated (±SD), mean number of mosquitoes in the treated zone ([1]; dose 1 mg/ml): 10.3 ± 0.7; KI (%) kairomone index ([1]; dose 1 mg/ml): −46.3% |
| CCCC(C)Oc1ccc2c(=O)ccoc2c1 (racemic) [7-sec-pentoxychromone] | 80.1% | 2.5 ± 0.3 | 9.5 ± 0.2 | −59.2% | 88.3% | 3.4 ± 0.4 | 9.8 ± 1.1 | −47.9% | 90% | 4.8 ± 0.4 | 8.7 ± 0.4 | −28.6% | attractant | −59.2% | −47.8% | −28.7% | AI (%) activity index ([1]; dose 1 mg/ml): 85%; Control (±SD), mean number of mosquitoes in the control zone ([1]; dose 1 mg/ml in treated zone): 3.5 ± 0.5; Treated (±SD), mean number of mosquitoes in the treated zone ([1]; dose 1 mg/ml): 9.3 ± 0.7; KI (%) kairomone index ([1]; dose 1 mg/ml): −45.6% |
| O=c1cc(O)c2ccccc2o1 [4-hydroxycoumarin] |  |  |  |  |  |  |  |  |  |  |  |  |  |  |  |  | increase in attraction ([2]; higher doses (10 and 30 mg) vs low doses): 10%; kairomone index KI ([2]; low dose (or quantity)): ~40% |
| C=CC(O)CCCCC (stereo not drawn) [Octen-3-ol, octen-3-ol, reference compound] |  |  |  |  |  |  |  |  |  |  |  |  |  | −41.7% | −54.7% | −61.6% |  |
